According to the NIST ThermoML archive (doi:10.1016/j.tca.2014.03.027):

Key:
[1] = molar heat capacity at constant pressure; settings: 298.15 K; 101.33 kPa; Liquid; Small sample (50 mg) DSC
[2] = 298.15 K; 101.33 kPa; Liquid; Vibrating tube method
[3] = xn = mol fraction of the nth substance listed; settings: 101 kPa, Liquid, Small sample (50 mg) DSC

NCc1ccccc1 [benzylamine]
Settings	mass density [kg/m3]	molar heat capacity at constant pressure [J/K/mol]
[1]	–	206.74
[2]	978.337	–

NCc1ccccc1 [benzylamine] + CCCCCCC
[3], 293.15 K
Settings	excess molar heat capacity [J/K/mol]
x1 = 0.1982	0.78
x1 = 0.2473	1.66
x1 = 0.2989	3.35
x1 = 0.3496	4.17
x1 = 0.3734	4.88
x1 = 0.3986	5.87
x1 = 0.4976	6.51
x1 = 0.5988	5.47
x1 = 0.6983	3.47
x1 = 0.7991	1.46

NCc1ccccc1 [benzylamine] + CCCCCO
excess molar heat capacity [J/K/mol], [3]
Settings	293.15 K	298.15 K	308.15 K
x2 = 0.0495	2.15	2.31	2.12
x2 = 0.1528	5.18	5.79	5.71
x2 = 0.2765	8.64	8.73	8.42
x2 = 0.2967	9.27	9.48	8.89
x2 = 0.4512	12.51	12.28	11.2
x2 = 0.4994	13.7	13.25	12.08
x2 = 0.6006	13.71	13.13	11.91
x2 = 0.6516	12.63	12.04	10.9
x2 = 0.7019	11.57	10.98	9.9
x2 = 0.7998	9.04	8.54	7.76
x2 = 0.8493	7.39	7.06	6.31
x2 = 0.899	5.41	5.16	4.6
x2 = 0.9505	2.72	2.46	2.3

NCc1ccccc1 [benzylamine] + CCCO
excess molar heat capacity [J/K/mol], [3]
Settings	293.15 K	298.15 K	308.15 K
x2 = 0.0665	1.89	2.55	2.84
x2 = 0.1004	2.96	3.37	3.45
x2 = 0.1986	6.26	6.74	6.5
x2 = 0.2994	9.38	9.67	9.53
x2 = 0.4007	11.35	11.45	11.18
x2 = 0.4477	11.83	11.95	11.58
x2 = 0.5497	13.34	13.25	12.85
x2 = 0.6032	13.04	12.99	12.57
x2 = 0.6515	12.75	12.91	12.84
x2 = 0.6998	12.05	12.14	11.7
x2 = 0.8014	9.42	9.48	9.06
x2 = 0.849	7.29	7.32	7.22
x2 = 0.9003	4.9	5.05	4.75

NCc1ccccc1 [benzylamine] + CO
excess molar heat capacity [J/K/mol], [3]
Settings	293.15 K	298.15 K	308.15 K
x2 = 0.0537	1.16	1.26	1.59
x2 = 0.1106	2.61	2.84	3.36
x2 = 0.2041	5.02	5.43	6.08
x2 = 0.2963	7.9	8.16	8.87
x2 = 0.3518	9.32	9.77	10.2
x2 = 0.397	10.86	11.3	11.89
x2 = 0.4966	12.24	12.88	13.26
x2 = 0.5512	12.66	13.17	13.67
x2 = 0.5987	12.63	12.99	13.38
x2 = 0.6991	10.63	11.13	11.55
x2 = 0.7484	9.18	9.49	10
x2 = 0.7988	7.43	7.67	8.28
x2 = 0.849	4.92	5.29	5.72
x2 = 0.9009	3.22	3.49	3.8

CCCCCCC [heptane]
Settings	molar heat capacity at constant pressure [J/K/mol]
[1]	223.91

CO [methanol]
Settings	molar heat capacity at constant pressure [J/K/mol]
[1]	80.81

CCCCCO [pentan-1-ol]
Settings	molar heat capacity at constant pressure [J/K/mol]
[1]	206.67

CCCO [propan-1-ol]
Settings	molar heat capacity at constant pressure [J/K/mol]
[1]	143.41
